Entries after “also recorded” stand apart in the source; their conditions may differ.

From patent US12583817B2, “Ionizable lipids and compositions and uses thereof” (Massachusetts Institute of Technology, priority 2021, dated 2026) come the findings set out here.

The nature of series [1]: Toxicity study after repeat nebulized dosing (weight, serum ALT/AST). In kind it is in vivo, mice. The settings on record: repeated nebulized delivery. As for the experimental part: (FIG. 6A). […] To determine whether the protein expression in the lung could be controlled by nebulized dose, a dose-response study of the three LNPs was performed, whereby mice were nebulized with 0.25, 0.5, or 1 mg of mRNA. For all three LNPs, there was an increase in lung luminescence corresponding to increasing dose (FIG. 14A). […] For mRNA protein-replacement therapies to treat pulmonary diseases like cystic fibrosis, repeat dosing of the therapeutic will be required unless genome editing is possible. Therefore, the ability to repeat-dose nebulized LNPs was characterized by administration of 1 mg of FFL mRNA every 72 h, with measurement of lung luminescence 6 h after each nebulization. For all LNPs, no loss in lung luminescence was observed over the course of the three administrations (FIG. 6B). Additionally, repeated delivery of the nebulized LNPs was well tolerated as evidenced by the lack of weight loss (FIG. 27) and normal liver enzyme levels (FIG. 14B) in mice.
Toxicity study, 48 h after the third nebulization of FFL mRNA in the repeat dosing study, mice were bled and sera was isolated using microcentrifugation in BD SST microtainers. Serum was analyzed for ALT and AST levels (Custom lipid panel 62149, IDEXX Bioanalytics).

The subject of series [2] is nose. Put plainly: Nebulized FFL mRNA delivery to mice, luminescence in nose. The format is in vivo.
Series [3] relates to ALI cultures derived from primary human bronchial epithelial cells. The settings on record: for mRNA delivery in small and large airway ALI cultures, lipids and tail/headgroup variants: handmixed LNPs, not nebulized; for mRNA delivery to small airway ALI cultures: screen of 12 top-performing A549 LNPs.
Experimental: Air-liquid interface (ALI) cultures derived from primary human bronchial epithelial cells were selected. ALI cultures are grown on porous Transwell inserts such that, upon reaching confluence, media can be removed from the top (apical) side of the insert and the cells can be fed from the bottom, basolateral, side (FIG. 12A). This enables recapitulation of the conditions of the native bronchial epithelium, where the apical side of the cells is exposed to the air while the basolateral side is bathed in nutrients.
Primary large airway cells (University of North Carolina at Chapel Hill MLI Tissue Procurement and Cell Culture Core) and primary small airway cells (ATCC) were expanded using PneumaCult-ExPlus (StemCell) according to the instructions for the media and plated for ALI cultures at P3 and P4 respectively.
ALI cultures were plated either onto 0.4 μm pore, 6.5 mm diameter PET Transwell inserts for 24-well plates (Corning) or 0.4 μm pore polycarbonate inserts for 96-well plates (Corning). The 24-well plates were used for histology, the two-week transfection timecourse, and TEER measurements; 96-well plates were used for all other experiments, 33,000 cells/well were seeded in the 24 well inserts and 15,000 cells/well were seeded in the 96-well plate inserts.
Per manufacturer instructions, cultures were grown to confluence with both apical and basolateral (ExPlus) media for 2-4 days before airlift. […] Upon airlift, apical media was removed and basolateral media was changed to PneumaCult-ALI (for large airway cells) or ALI-S (for small airway cells) media (StemCell). […] Media was changed 3 times/week and cells were not transfected until at least 20 days of ALI culture.
In vitro transfection experiments. […] The next day. […] For ALI cultures.
In series [4] the test system is mouse lung. Put plainly: Nebulized FFL mRNA delivery to mice, lung bioluminescence (IVIS). The settings on record: for Nebulized lung delivery compared between lipids/NPs: 1 mg dose via nose cone, 6 hr, T1-5 formulated with bPEG20K and NaAc; for In vivo performance via nebulization vs C12-200: 1 mg mRNA dose (FIG. 6A); for Nebulized delivery in NaAc buffer with bPEG20K vs PBS with no excipient: T1-5 LNPs. In kind it is in vivo, C57BL/6 mice. As for the experimental part: In vivo nebulized delivery. In vivo nebulized delivery of mRNA to C57BL/6 mice (Jackson Laboratory) was performed either in a whole-body exposure chamber or a nose-only exposure chamber (CH Technologies) where specified. LNPs at 0.3 mg/mL of mRNA were loaded into the nebulizer at required volumes with 2% w/v excipients where specified. For the whole-body exposure chamber, the nebulizer was connected to the chamber via a tee and an oxygen flow rate of 15 SCFH was used to direct aerosol into the chamber. For the nose-only exposure chamber, mice were immobilized in restrainers and the restrainers connected to the chamber. A flow rate of 2 SLPM of oxygen was used and pressure within the chamber was maintained at −0.1 din. H2O.
In vivo bioluminescence, 6 h after nebulization, unless otherwise noted, mice were injected intraperitoneally with 0.2 ml XenoLight D-luciferin (10 mg/mL in DPBS, PerkinElmer). For whole-body imaging, mice were anesthetized in a ventilated anesthesia chamber with 2.5% isofluorane in oxygen and imaged 10 min after luciferin injection. Otherwise, mice were sacrificed 10 min after luciferin injection and organs were collected for imaging. Luminescence was measured with an in vivo imaging system (IVIS, PerkinElmer) and quantified using the Living Image software (PerkinElmer).

The subject of series [5] is lung epithelium. The series is described as follows: Nebulized Cre mRNA delivery to Ai14 mice, histology count of tdTomato+ airway cells.
The subject of series [6] is A549 cells. Put plainly: In vitro FFL mRNA transfection of A549 cells (Bright-Glo). The following applies: microfluidically mixed, nebulized with bPEG20K and NaAc.
Series [7] in a line: LNP size by DLS before and after nebulization. The format is physicochemical. The settings on record: nebulized in the presence of bPEG20K and NaAc buffer.
Experimental: Nebulization of nanoparticles. For characterizing effects of nebulization on LNP size, encapsulation efficiency, and transfection efficiency, 100 uL of LNPs at 150 ng/uL were loaded into an Aeroneb vibrating mesh nebulizer (Aerogen) and nebulized into 1.5 mL microcentrifuge tubes. Where specified, 2% w/v of excipients were added to the LNP formulation following dialysis and immediately prior to nebulization.
[8] abbreviates: Cre mRNA nebulized over 3 doses.
Setting [9] is: all cells, Cre mRNA nebulized over 3 doses.
Setting [10] is: nebulized, 1 mg dose, nose cone.

For the compound `CCCCCCCC/C=C\CCCCCCCC(=O)OCCCCCC(O)C(CCCCOC(=O)CCCCCCC/C=C\CCCCCCCC)CN(C)CCCn1cccn1` (stereo not drawn) [IR-19-Py, 5-(((3-(1H-pyrazol-1-yl)propyl)(methyl)amino)methyl)-6-hydroxyundecane-1,11-diyl dioleate], the “Tolerability of nebulized LNPs” value in series [1] is listed as “no apparent toxicity”. For the same compound, the “Protein expression / mRNA delivery in the nose” value in series [2] was “significantly outperform state-of-the-art mRNA delivery formulations; also recorded: particularly high and extended protein expression was observed in the nose”. For the same compound, in series [3], the “mRNA delivery in small and large airway ALI cultures, lipids and tail/headgroup variants” value is given as “outperformed other screened lipids in ALI cultures”; the “mRNA delivery to small airway ALI cultures” value was “excellent performance”. Moreover, in series [4], the “Nebulized lung delivery compared between lipids/NPs” value is on record as “statistically comparable delivery to C12-200”, the “In vivo performance via nebulization vs C12-200” value is “performed comparably to C12-200” and the “Nebulized delivery in NaAc buffer with bPEG20K vs PBS with no excipient” value is on record as “improves nebulized delivery of both LNPs compared to PBS”.

In the case of `CCCCC/C=C\C/C=C\CCCCCCCC(=O)OCCCCCC(O)C(CCCCOC(=O)CCCCCCC/C=C\C/C=C\CCCCC)CNCCCN(CCCC)CCCC` (stereo not drawn) [IR-117-17, 5-(((3-(dibutylamino)propyl)amino)methyl)-6-hydroxyundecane-1,11-diyl (9Z,9′Z,12Z,12′Z)-bis(octadeca-9,12-dienoate)], in series [5] (140/151 airways), the “Small airways with at least 1 transfected cell” value turned out to be 93%. In addition, in series [5] (setting [8]), the “Club cells transfected, large airway” value was determined as 8.4% and the “Club cells transfected, small airway” value is 7.6%. In series [5] (setting [9]), the “Transfection of large airway cells (average)” value is recorded as 10.3% and the “Transfection of small airway cells (average)” value was 8.8%. In series [5] (some stretches), the “Transfection of individual stretches of airway” value is “near-complete transfection”. Moreover, the “Tolerability of nebulized LNPs” value in series [1] was “no apparent toxicity”. For the same compound, the “FFL delivery to A549 cells, post-nebulized LNPs” value in series [6] is “effective”. For the same compound, in series [7], the “Average diameter after nebulization” value stood at 116 nm. Moreover, in series [3], the “mRNA delivery in small and large airway ALI cultures, lipids and tail/headgroup variants” value is reported as “outperformed other screened lipids in ALI cultures”; the “mRNA delivery to small airway ALI cultures” value was “excellent performance”. Moreover, in series [4], the “Nebulized lung delivery compared between lipids/NPs” value is given as “significantly outperform state-of-the-art mRNA delivery formulations; also recorded: significantly outperformed C12-200”, the “In vivo performance via nebulization vs C12-200” value was “outperformed C12-200” and the “Nebulized delivery in NaAc buffer with bPEG20K vs PBS with no excipient” value is listed as “improves nebulized delivery of both LNPs compared to PBS”. The Lung luminescence in series [4] (6 hr after 1 mg dose via nose cone, lipids T1-5 formulated with bPEG20K and NaAc) was 1.1×10^6 p s^−1 cm^−2 sr^−1. Also, in series [4] (setting [10]), the “Fold improvement of IR-117-17 lung mRNA delivery over NLD1” value was 300 fold and the “Improvement of IR-117-17 lung mRNA delivery over polymeric PBAE nanoparticle” value was “twofold; also recorded: two-fold”.
